This note sets out measurements from patent US5324725A, “7-fused 2-(piperazinoalkyl) indole derivatives, intermediates and compositions thereof” (Kali-Chemie Pharma GmbH, priority 1991, dated 1994).

The experiment has as its system P.A.F.-induced aggregation of platelets from rabbit blood. Briefly: Anti-P.A.F. effect in vitro: inhibition of P.A.F.-induced platelet aggregation. In kind it is cell-based, rabbit (New Zealand hybrids). The settings on record: Oryctolagus cuniculus, Platelet, test substance concentration 10^-5 mol/l. The gist of the method: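 Washed, aspirin-treated rabbit platelets (4×10^9/ml stock suspension) in modified Tyrode buffer, pH 7.4, preincubated 90 s with test compound at 10^-5 mol/l final, then challenged with P.A.F. Aggregation followed 4–5 min in an aggregometer. Inhibition expressed in % relative to P.A.F.-only (100%) and platelet-only (0%) controls.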

What is called inhibition is the change of the read-out against control, counted positive when it falls.

In turn, `Cc1ccnc(N2CCN(CCc3c(C)n4c5c(ccc(C(O)C(C)C)c35)SCC4)CC2)c1` (centres unmarked) [Example 90] registered an inhibition at 10 µM of 64%. The same measure for `Cc1ccnc(N2CCN(CCc3c(C)n4c5c(cc(C(=O)c6ccccc6)cc35)CCC4)CC2)c1` [Example 66]: 100%; for `CC(=O)Oc1cc2c3c(c1)c(CCN1CCN(c4cc(C)ccn4)CC1)c(C)n3CCC2` [Example 24, 8-Acetoxy-5,6-dihydro-2-methyl-1-{2-[4-(4-methyl-pyridin-2-yl)piperazin-1-yl]ethyl}-4H-pyrrolo[3,2,1-ij]quinoline]: 80%; for `Cc1ccnc(N2CCN(CCc3c(C)n4c5c(cc(C(O)C(C)C)cc35)CCC4)CC2)c1` (centres unmarked) [Example 19, 5,6-Dihydro-8-(1-hydroxy-2-methylpropyl)-2-methyl-1-{2-[4-(4-methylpyridin-2-yl)piperazin-1-yl]ethyl}-4H-pyrrolo-[3,2,1-ij]quinoline]: 83%.

`Cc1ccnc(N2CCN(CCc3c(C)n4c5c(ccc(C(=O)C(C)C)c35)SCC4)CC2)c1` [Example 91]: at 10 µM the inhibition was 58%. The same measure for `Cc1ccnc(N2CCN(CCc3c(C)n4c5c(cccc35)SCC4)CC2)c1` [Example 11, 5-Methyl-6-{2-[4-(4-methylpyridin-2-yl)piperazin-1-yl]ethyl}-2,3-dihydro-pyrrolo[1,2,3-de]-1,4-benzo-thiazine]: 89%. The compound `CNc1cc2c3c(c1)c(CCN1CCN(c4cc(C)ccn4)CC1)c(C)n3CCC2` [Example 80] gave an inhibition at 10 µM of 72%. The compound `CCCCC1CCc2cc(OC)cc3c(CCN4CCN(c5cc(C)ccn5)CC4)c(C)n1c23` (centres unmarked) [Example 63] registered an inhibition at 10 µM of 98%. For the compound `Cc1ccnc(N2CCN(CCc3c(C)n4c5c(cc(Br)cc35)CCC4)CC2)c1` [Example 9, 8-Bromo-2-methyl-1-{2-[4-(4-methylpyridin-2-yl)piperazin-1-yl]ethyl}-5,6-dihydro-4H-pyrrolo[3,2,1-ij]quinoline], testing at 10 µM gave an inhibition of 73%. For `Cc1ccnc(N2CCN(CC(O)c3c(C4CCCCC4)n4c5c(cccc35)CCC4)CC2)c1` (centres unmarked) [Example 85] the value was 100%. On to `Cc1c(CCN2CCN(c3ccccn3)CC2)c2cccc3c2n1CCC3` [Example 37], for which the inhibition at 10 µM is 28%. For the compound `COc1ccc(C2CCc3cccc4c(CCN5CCN(c6cc(C)ccn6)CC5)c(C)n2c34)cc1` (centres unmarked) [Example 59], at 10 µM the inhibition was 89%. `Cc1ccnc(N2CCN(CCc3c(C)n4c5c(cccc35)CCC4c3ccc(O)cc3)CC2)c1` (centres unmarked) [Example 61]: testing at 10 µM gave an inhibition of 83%. Take `CCCCCCCC1CCc2cccc3c(CCN4CCN(c5cc(C)ccn5)CC4)c(C)n1c23` (centres unmarked) [Example 4, 4-n-heptyl-5,6-dihydro-2-methyl-1-{2-[4-(4-methylpyridin-2-yl)piperazin-1-yl]ethyl}-4H-pyrrolo[3,2,1-ij]-quinoline]: the inhibition at 10 µM amounted to 58%. `CCCCC1CCc2cc(C(=O)C(C)C)cc3c(CCN4CCN(c5cc(C)ccn5)CC4)c(C)n1c23` (centres unmarked) [Example 23, 4-n-Butyl-5,6-dihydro-8-(2-methyl-1-oxopropyl)-2-methyl-1-{2-[4-(4-methylpyridin-2-yl)piperazin-1-yl]ethyl}-4H-pyrrolo[3,2,1-ij]quinoline] gave an inhibition at 10 µM of 100%. `Cc1ccnc(N2CCN(CCc3c(C)n4c5c(cc(C)cc35)CCC4)CC2)c1` [Example 54]: at 10 µM the inhibition was 75%. Consider `CCc1c(CCN2CCN(c3cc(C)ccn3)CC2)c2cccc3c2n1CCC3` [Example 15, 2-Ethyl-5,6-dihydro-1-{2-[4-(4-methylpyridin-2-yl)piperazin-1-yl]ethyl}-4H-pyrrolo[3,2,1-ij]quinoline], for which testing at 10 µM gave an inhibition of 85%.

In turn, `Cc1ccnc(N2CCN(CCc3c(C)n4c5c(cc(NC(=O)c6ccccc6)cc35)CCC4)CC2)c1` [Example 25, 8-Benzoylamino-5,6-dihydro-2-methyl-1-{2-[4-(4-methylpyridin-2-yl)piperazin-1-yl]-ethyl}-4H-pyrrolo[3,2,1-ij]quinoline] came in with an inhibition at 10 µM of 43%. In turn, `CCCCC1CCc2cc(O)cc3c(CCN4CCN(c5cc(C)ccn5)CC4)c(C)n1c23` (centres unmarked) [Example 76] came in with an inhibition at 10 µM of 99%. The compound `Cc1ccnc(N2CCN(CCc3c(-c4ccc(OCCCCO)cc4)n4c5c(cccc35)CCC4)CC2)c1` [Example 12, 2-[4-(4-Hydroxybutyloxy)-phenyl]-1-{2-[4-(4-methylpyridin-2-yl)piperazin-1-yl]ethyl}-5,6-dihydro-4H-pyrrolo[3,2,1-ij]quinoline] displayed an inhibition at 10 µM of 100%. With `Cc1ccnc(N2CCN(CCc3c(C)n4c5c(ccc(Cl)c35)OCC4)CC2)c1` [Example 35], the inhibition at 10 µM turned out to be 56%. For `CC(C)=Cc1cc2c3c(c1)c(CCN1CCN(c4cc(C)ccn4)CC1)c(C)n3CCC2` [Example 26, 5,6-Dihydro-2-methyl-8-(2-methylprop-1-enyl)-1-{2-[4-(4-methylpyridin-2-yl)piperazin-1-yl]ethyl}-4H-pyrrolo[3,2,1-ij]quinoline] the value was 89%. For `Cc1ccnc(N2CCN(CCc3cn4c5c(cccc35)CCC4)CC2)c1` [Example 13, 5,6-Dihydro-1-{2-[4-(4-methylpyridin-2-yl)piperazin-1-yl]ethyl}-4H-pyrrolo[3,2,1-ij]quinoline], testing at 10 µM gave an inhibition of 93%.

Regarding `Cc1ccnc(N2CCN(CCc3c(C)n4c5c(c(Cl)cc(Cl)c35)OCC4)CC2)c1` [Example 79], at 10 µM the inhibition was 71%. As to `Cc1cc2c3c(c1)c(CCN1CCC(C(=O)c4ccc(F)cc4)CC1)c(C)n3CCC2` [Example 55], the inhibition at 10 µM is 40%. For the compound `Cc1ccnc(N2CCN(CCc3c(-c4ccc(O)cc4)n4c5c(cccc35)CCC4)CC2)c1` [Example 8, 2-(4-hydroxyphenyl)-1-{2-[4-(4-methylpyridin-2-yl)piperazin-1-yl]ethyl}-5,6-dihydro-4H-pyrrolo[3,2,1-ij]quinoline], the inhibition at 10 µM worked out at 100%.

The compound `Cc1ccnc(N2CCN(CCc3c(C)n4c5c(cc(Cc6ccccc6)cc35)CCC4)CC2)c1` [Example 77] gave an inhibition at 10 µM of 100%.

`COc1ccc(C2CCc3cc(OC)cc4c(CCN5CCN(c6cc(C)ccn6)CC5)c(C)n2c34)cc1` (centres unmarked) [Example 65] showed an inhibition at 10 µM of 100%. Compound `Cc1ccnc(N2CCN(CCc3c(C)n4c5c(cc(CC(C)C)cc35)CCC4)CC2)c1` [Example 21, 5,6-Dihydro-2-methyl-8-(2-methylpropyl)-1-{2-[4-(4-methylpyridin-2-yl)piperazin-1-yl]ethyl}-4H-pyrrolo[3,2,1-ij]quinoline] gave an inhibition at 10 µM of 91%.

In turn, `Cc1ccnc(N2CCN(CCc3c(C)n4c5c(cccc35)CCC4)CC2)c1` [Example 1, 5,6-Dihydro-2-methyl-1-{2-[4-(4-methylpyridin-2-yl)piperazin-1-yl]ethyl}-4H-pyrrolo[3,2,1-ij]quinoline] gave an inhibition at 10 µM of 97%. Take `Cc1ccnc(N2CCN(CCc3c(-c4ccc(F)cc4)n4c5c(cccc35)CCC4)CC2)c1` [Example 47]: at 10 µM the inhibition was 95%. `CCc1c(C(O)CN2CCN(c3cc(C)ccn3)CC2)c2cccc3c2n1CCC3` (centres unmarked) [Example 14, 2-Ethyl-5,6-dihydro-1-{2-[4-(4-methylpyridin-2-yl)piperazin-1-yl]-1-hydroxyethyl}-4H-pyrrolo[3,2,1-ij]quinoline]: the inhibition at 10 µM turned out to be 86%. As for `CC(=O)c1cc2c3c(c1)c(CCN1CCN(c4cc(C)ccn4)CC1)c(C)n3CCC2` [Example 67], testing at 10 µM gave an inhibition of 76%. With `Cc1ccnc(N2CCN(CCc3c(C)n4c5c(cc([N+](=O)[O-])cc35)CCC4)CC2)c1` [Example 10, 2-Methyl-8-nitro-1-{2-[4-(4-methylpyridin-2-yl)-piperazin-1-yl]ethyl}-5,6-dihydro-4H-pyrrolo[3,2,1-ij]quinoline], the inhibition at 10 µM is 94%. Consider `Cc1ccnc(N2CCN(CCc3c(C)n4c5c(cccc35)CC4C)CC2)c1` (centres unmarked) [Example 33], for which at 10 µM the inhibition was 71%. For `Cc1ccnc(N2CCN(CCc3c(C)n4c5c(c(C(O)C(C)C)ccc35)SCC4)CC2)c1` (centres unmarked) [Example 89], the inhibition at 10 µM was found to be 100%.

As for `Cc1ccnc(N2CCN(CCc3c(C)n4c5c(cc(N)cc35)CCC4)CC2)c1` [Example 20, 8-Amino-5,6-dihydro-2-methyl-1-{2-[4-(4-methylpyridin-2-yl)piperazin-1-yl]ethyl}-4H-pyrrolo[3,2,1-ij]quinoline], the inhibition at 10 µM was determined as 17%. As to `Cc1ccnc(N2CCN(CCc3c(C)n4c5c(cc(C(=O)C6CCCCC6)cc35)CCC4)CC2)c1` [Example 83], testing at 10 µM gave an inhibition of 100%.

On to `Cc1ccnc(N2CCN(CCc3c(C)n4c5c(cc(NC(=O)C(C)C)cc35)CCC4)CC2)c1` [Example 60], for which the inhibition at 10 µM turned out to be 44%. In turn, `Cc1ccnc(N2CCN(CCc3c(C)n4c5c(cccc35)CCC4c3ccccc3)CC2)c1` (centres unmarked) [Example 3, 5,6-dihydro-2-methyl-4-phenyl-1-{2-[4-(4-methylpyridine-2-yl)piperazin-1-yl]-ethyl}-4H-pyrrolo[3,2,1-ij]quinoline] returned an inhibition at 10 µM of 100%. For `C=CCCC1CCc2cccc3c(CCN4CCN(c5cc(C)ccn5)CC4)c(C)n1c23` (centres unmarked) [Example 62], at 10 µM the inhibition was 70%. Turning to `Cc1ccnc(N2CCN(CCc3c(C)n4c5c(cccc35)C(C)CC4)CC2)c1` (centres unmarked) [Example 57], testing at 10 µM gave an inhibition of 86%. In turn, `Cc1ccnc(N2CCN(CCc3c(CO)n4c5c(cccc35)CCC4)CC2)c1` [Example 16, 5,6-dihydro-2-hydroxymethyl-1-{2-[4-(4-methylpyridin-2-yl)piperazin-1-yl]ethyl}-4H-pyrrolo[3,2,1-ij]quinoline] displayed an inhibition at 10 µM of 73%. For `Cc1ccnc(N2CCN(CCc3c(C)n4c5c(cc(C(=O)C(C)C)cc35)CCC4)CC2)c1` [Example 27, 5,6-dihydro-2-methyl-8-(2-methyl-1-oxopropyl)-1-{2-[4-(4-methylpyridin-2-yl)piperazin-1-yl]ethyl}-4H-pyrrolo-[3,2,1-ij]quinoline], at 10 µM the inhibition was 83%.
